Reference: US10736933B2, “Peptide-induced NK cell activation” (priority 2015, dated 2020)

Key:
[1] = tested on: NK cell line transfected with KIR2DS2; test: DAP12 phosphorylation after KIR2DS2 immunoprecipitation (Western blot); type: cell-based; settings: L721.174 cells with peptide at a concentration of 2004, NK cell line with KIR2DS2 for 5 minutes
Protocol: A. L721.174 cells were incubated with indicated peptides. The cells were then incubated with the NK cell line transfected with KIR2DS2. The cells were lysed and the KIR2DS2 was then immunoprecipitated from the mixture using the GL183 antibody coupled to protein-G beads. The immune precipitate was analysed by Western blotting using a phosphotyrosine antibody. The membrane was then stripped and reprobed with an antibody to DAP12 the molecule that transduces a positive signal from KIR2DS2. Shown are the regions on the blots at the level of DAP12 (12-15 kDa). B. L721.174 cells were incubated with indicated peptides. The cells were then incubated with the NK cell line transfected with KIR2DS2 or transfected with KIR2DL2. The cells were lysed in 1% NP-40 and then analysed by Western blotting using antibodies to pVav1 and then following stripping of the membrane to Vav1. Shown are Western blots around the 98 kDa region, and below them the corresponding densitometries for 3 independent experiments.
With reference to FIG. 6A, 1×10^6 L721.174 cells were incubated overnight at 26° C. with indicated peptides at a concentration of 2004. […] The immune precipitate was analysed by Western blotting using a phosphotyrosine antibody. […] The cells were lysed in 1% NP-40 and then analysed by Western blotting using antibodies to pVav1 and then following stripping of the membrane to Vav1. […]

[2] = tested on: KIR2DS2-positive NK cells; test: CD107a degranulation of NK cells from KIR2DS2-positive donors cultured with peptide-loaded L721.174 cells; type: cell-based
Protocol: A. cells were incubated in the presence or absence of peptides, and then cultured with NK cells from either a KIR2DS2-positive or KIR2DS2-negative donor. The level of CD107a (LAMP) expression was measured on NK cells positive for the CH-L antibody. This antibody binds to KIR2DS2, KIR2DL2 and KIR2DL3. B. Summary data from 5 KIR2DS2-positive and 6 KIR2DS2 • negative donors tested as per panel A of FIG. 2. To compare the different donors the data are normalized to 100% for the no peptide condition.
With reference to FIG. 2A, 3×10^5 L721.174 cells were incubated at 26° C. overnight in the presence or absence of peptides, and then cultured for four hours with NK cells from either a KIR2DS2-positive or KIR2DS2-negative donor. The level of CD107a (LAMP) expression was measured on NK cells positive for the CH-L antibody. This antibody binds to KIR2DS2, KIR2DL2 and KIR2DL3. […] With reference to FIG. 2B, summary data from 5 KIR2DS2-positive and 6 KIR2DS2 • negative donors were tested as per panel A of FIG. 2. To compare the different donors the data are normalized to 100% for the no peptide condition.

With “LNPSVAATL [peptide recognized by KIR2DS2-positive NK cells]” the “phosphorylation of DAP12” value [1] was “induces phosphorylation of DAP12”, the “level of CD107a (LAMP) degranulation” value ([2]; KIR2DS2-positive donor, CH-L antibody positive NK cells, four hours, compared to no peptide) was “higher levels of degranulation” and the “level of CD107a (LAMP) degranulation” value ([2]; KIR2DS2-positive donors, in combination with VAPWNSFAL, compared to the VAPWNSFAL peptide alone) was “higher levels of degranulation”.
